Columns and labels:
Assay in all cases: SelectScreen LanthaScreen Binding
Conditions in all cases: INX-0315 at 100nM
RIPK3 = molecular target: T1, RIPK3 (Homo sapiens, UniProt Q9Y572)
T1 construct: purchased Thermo Fisher Scientific SelectScreen (plus Nanosyn / Reaction Biology for CDK/cyclin lines)
Excerpt: (§1) INX-315 was first evaluated in the SelectScreen Biochemical Kinase Profiling at Thermo Fisher Scientific (Madison, WI). The primary screen consisted of INX-315 dosed at a single concentration of 100 nmol/L in 1% DMSO across each platform within the SelectScreen array of assays, LanthaScreen Eu Kinase Binding Assay; AdaptaScreen; and Z'LyteScreen using preestablished conditions at Thermo Fisher Scientific as shown in Supplementary Table S2. […] The follow-up screen consisted of 10-point dose–response curves for INX-315 from 1 µmol/L to 0.0495 nmol/L.

CAMKK1 (CAMKKA) = molecular target: T2, CAMKK1 (CAMKKA) (Homo sapiens, UniProt Q8N5S9)
T2 construct: purchased Thermo Fisher Scientific SelectScreen (plus Nanosyn / Reaction Biology for CDK/cyclin lines)
Excerpt: as §1

CDK3/cyclin E1 = molecular target: T3, CDK3/cyclin E1 (Homo sapiens, UniProt Q00526)
T3 construct: purchased BPS 40103
Excerpt: as §1

ERN2 = molecular target: T4, ERN2 (Homo sapiens, UniProt Q76MJ5)
T4 construct: purchased Thermo Fisher Scientific SelectScreen (plus Nanosyn / Reaction Biology for CDK/cyclin lines)
Excerpt: as §1

ALK C1156Y = molecular target: T5, ALK C1156Y (Homo sapiens, UniProt Q9UM73, C1156Y)
T5 construct: purchased Thermo Fisher Scientific SelectScreen (plus Nanosyn / Reaction Biology for CDK/cyclin lines)
Excerpt: as §1

KIT A829P = molecular target: T6, KIT A829P (Homo sapiens, UniProt P10721, A829P)
T6 construct: purchased Thermo Fisher Scientific SelectScreen (plus Nanosyn / Reaction Biology for CDK/cyclin lines)
Excerpt: as §1

CDC7/DBF4 = molecular target: T7, CDC7/DBF4 (Homo sapiens, UniProt O00311)
T7 construct: purchased Thermo Fisher Scientific SelectScreen (plus Nanosyn / Reaction Biology for CDK/cyclin lines)
Excerpt: as §1

KIT D816V = molecular target: T8, KIT D816V (Homo sapiens, UniProt P10721, D816V)
T8 construct: purchased Thermo Fisher Scientific SelectScreen (plus Nanosyn / Reaction Biology for CDK/cyclin lines)
Excerpt: as §1

WNK2 = molecular target: T9, WNK2 (Homo sapiens, UniProt Q9Y3S1)
T9 construct: purchased Thermo Fisher Scientific SelectScreen (plus Nanosyn / Reaction Biology for CDK/cyclin lines)
Excerpt: as §1

FLT3 ITD = system: FLT3 ITD
Excerpt: as §1

AMPK (A2/B2/G2) = molecular target: T10, AMPK (A2/B2/G2) (Homo sapiens, UniProt P54646)
T10 construct: purchased Thermo Fisher Scientific SelectScreen (plus Nanosyn / Reaction Biology for CDK/cyclin lines)
Excerpt: as §1

MAP3K10 (MLK2) = molecular target: T11, MAP3K10 (MLK2) (Homo sapiens, UniProt Q02779)
T11 construct: purchased Thermo Fisher Scientific SelectScreen (plus Nanosyn / Reaction Biology for CDK/cyclin lines)
Excerpt: as §1

MAP3K3 (MEKK3) = molecular target: T12, MAP3K3 (MEKK3) (Homo sapiens, UniProt Q99759)
T12 construct: purchased Thermo Fisher Scientific SelectScreen (plus Nanosyn / Reaction Biology for CDK/cyclin lines)
Excerpt: as §1

ULK2 = molecular target: T13, ULK2 (Homo sapiens, UniProt Q8IYT8)
T13 construct: purchased Thermo Fisher Scientific SelectScreen (plus Nanosyn / Reaction Biology for CDK/cyclin lines)
Excerpt: as §1

CDK2/cyclin A1 = molecular target: T14, CDK2/cyclin A1 (Homo sapiens, UniProt P24941)
T14 construct: host or cells: HEK293
Excerpt: as §1

MAPK8 (JNK1) = molecular target: T15, MAPK8 (JNK1) (Homo sapiens, UniProt P45983)
T15 construct: purchased Thermo Fisher Scientific SelectScreen (plus Nanosyn / Reaction Biology for CDK/cyclin lines)
Excerpt: as §1

MASTL = molecular target: T16, MASTL (Homo sapiens, UniProt Q96GX5)
T16 construct: purchased Thermo Fisher Scientific SelectScreen (plus Nanosyn / Reaction Biology for CDK/cyclin lines)
Excerpt: as §1

CAMKK2 (CaMKK beta) = molecular target: T17, CAMKK2 (CaMKK beta) (Homo sapiens, UniProt Q96RR4)
T17 construct: purchased Thermo Fisher Scientific SelectScreen (plus Nanosyn / Reaction Biology for CDK/cyclin lines)
Excerpt: as §1

DAPK2 = molecular target: T18, DAPK2 (Homo sapiens, UniProt Q9UIK4)
T18 construct: purchased Thermo Fisher Scientific SelectScreen (plus Nanosyn / Reaction Biology for CDK/cyclin lines)
Excerpt: as §1

STK17B (DRAK2) = molecular target: T19, STK17B (DRAK2) (Homo sapiens, UniProt O94768)
T19 construct: purchased Thermo Fisher Scientific SelectScreen (plus Nanosyn / Reaction Biology for CDK/cyclin lines)
Excerpt: as §1

EIF2AK2 (PKR) = molecular target: T20, EIF2AK2 (PKR) (Homo sapiens, UniProt P19525)
T20 construct: purchased Thermo Fisher Scientific SelectScreen (plus Nanosyn / Reaction Biology for CDK/cyclin lines)
Excerpt: as §1

TLK1 = molecular target: T21, TLK1 (Homo sapiens, UniProt Q9UKI8)
T21 construct: purchased Thermo Fisher Scientific SelectScreen (plus Nanosyn / Reaction Biology for CDK/cyclin lines)
Excerpt: as §1

[1] = molecular target: T22, MAP2K1 (MEK1) S218D S222D (Homo sapiens, UniProt Q02750, S218D/S222D)
T22 construct: purchased Thermo Fisher Scientific SelectScreen (plus Nanosyn / Reaction Biology for CDK/cyclin lines)
Excerpt: as §1

[2] = molecular target: T23, MAP2K6 (MKK6) S207E T211E (Homo sapiens, UniProt P52564, S207E/T211E)
T23 construct: purchased Thermo Fisher Scientific SelectScreen (plus Nanosyn / Reaction Biology for CDK/cyclin lines)
Excerpt: as §1

FGFR3 G697C = molecular target: T24, FGFR3 G697C (Homo sapiens, UniProt P22607, G697C)
T24 construct: purchased Thermo Fisher Scientific SelectScreen (plus Nanosyn / Reaction Biology for CDK/cyclin lines)
Excerpt: as §1

TTK = molecular target: T25, TTK (Homo sapiens, UniProt P33981)
T25 construct: purchased Thermo Fisher Scientific SelectScreen (plus Nanosyn / Reaction Biology for CDK/cyclin lines)
Excerpt: as §1

KIT T670E = molecular target: T26, KIT T670E (Homo sapiens, UniProt P10721, T670E)
T26 construct: purchased Thermo Fisher Scientific SelectScreen (plus Nanosyn / Reaction Biology for CDK/cyclin lines)
Excerpt: as §1

TNIK = molecular target: T27, TNIK (Homo sapiens, UniProt Q9UKE5)
T27 construct: purchased Thermo Fisher Scientific SelectScreen (plus Nanosyn / Reaction Biology for CDK/cyclin lines)
Excerpt: as §1

TEK (TIE2) R849W = molecular target: T28, TEK (TIE2) R849W (Homo sapiens, UniProt Q02763, R849W)
T28 construct: purchased Thermo Fisher Scientific SelectScreen (plus Nanosyn / Reaction Biology for CDK/cyclin lines)
Excerpt: as §1

AAK1 = molecular target: T29, AAK1 (Homo sapiens, UniProt Q2M2I8)
T29 construct: purchased Thermo Fisher Scientific SelectScreen (plus Nanosyn / Reaction Biology for CDK/cyclin lines)
Excerpt: as §1

KIT D816H = molecular target: T30, KIT D816H (Homo sapiens, UniProt P10721, D816H)
T30 construct: purchased Thermo Fisher Scientific SelectScreen (plus Nanosyn / Reaction Biology for CDK/cyclin lines)
Excerpt: as §1

CDK2/cyclin O = molecular target: T31, CDK2/cyclin O (Homo sapiens, UniProt P24941)
T31 construct: purchased Thermo Fisher Scientific SelectScreen (plus Nanosyn / Reaction Biology for CDK/cyclin lines)
Excerpt: as §1

ADCK3 = molecular target: T32, ADCK3 (Homo sapiens, UniProt Q8NI60)
T32 construct: purchased Thermo Fisher Scientific SelectScreen (plus Nanosyn / Reaction Biology for CDK/cyclin lines)
Excerpt: as §1

CDK5 (Inactive) = molecular target: T33, CDK5 (Inactive) (Homo sapiens, UniProt Q00535)
T33 construct: purchased Thermo Fisher Scientific SelectScreen (plus Nanosyn / Reaction Biology for CDK/cyclin lines)
Excerpt: as §1

STK32C (YANK3) = molecular target: T34, STK32C (YANK3) (Homo sapiens, UniProt Q86UX6)
T34 construct: purchased Thermo Fisher Scientific SelectScreen (plus Nanosyn / Reaction Biology for CDK/cyclin lines)
Excerpt: as §1

ALK T1151_L1152insT = molecular target: T35, ALK T1151_L1152insT (Homo sapiens, UniProt Q9UM73, INS1151T)
T35 construct: purchased Thermo Fisher Scientific SelectScreen (plus Nanosyn / Reaction Biology for CDK/cyclin lines)
Excerpt: as §1

WNK1 = molecular target: T36, WNK1 (Homo sapiens, UniProt Q9H4A3)
T36 construct: purchased Thermo Fisher Scientific SelectScreen (plus Nanosyn / Reaction Biology for CDK/cyclin lines)
Excerpt: as §1

T12 sequence (Q99759 whole entry): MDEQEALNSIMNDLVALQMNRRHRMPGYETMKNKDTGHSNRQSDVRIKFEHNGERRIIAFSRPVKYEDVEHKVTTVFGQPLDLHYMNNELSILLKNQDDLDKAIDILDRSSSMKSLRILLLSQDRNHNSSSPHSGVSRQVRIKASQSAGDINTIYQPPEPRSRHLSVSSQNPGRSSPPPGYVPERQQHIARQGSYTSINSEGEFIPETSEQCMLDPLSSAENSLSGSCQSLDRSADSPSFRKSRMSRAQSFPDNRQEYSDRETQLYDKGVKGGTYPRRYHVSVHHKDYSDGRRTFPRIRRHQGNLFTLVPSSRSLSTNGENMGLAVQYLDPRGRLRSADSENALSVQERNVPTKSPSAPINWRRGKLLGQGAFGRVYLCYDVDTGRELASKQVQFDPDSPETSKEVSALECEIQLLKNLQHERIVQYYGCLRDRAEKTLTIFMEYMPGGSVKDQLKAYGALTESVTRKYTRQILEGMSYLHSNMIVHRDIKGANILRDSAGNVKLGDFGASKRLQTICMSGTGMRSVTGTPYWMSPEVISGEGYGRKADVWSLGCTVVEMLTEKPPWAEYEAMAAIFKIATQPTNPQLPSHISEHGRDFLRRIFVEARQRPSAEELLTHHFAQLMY
T28 sequence (Q02763 23-1124 R849W): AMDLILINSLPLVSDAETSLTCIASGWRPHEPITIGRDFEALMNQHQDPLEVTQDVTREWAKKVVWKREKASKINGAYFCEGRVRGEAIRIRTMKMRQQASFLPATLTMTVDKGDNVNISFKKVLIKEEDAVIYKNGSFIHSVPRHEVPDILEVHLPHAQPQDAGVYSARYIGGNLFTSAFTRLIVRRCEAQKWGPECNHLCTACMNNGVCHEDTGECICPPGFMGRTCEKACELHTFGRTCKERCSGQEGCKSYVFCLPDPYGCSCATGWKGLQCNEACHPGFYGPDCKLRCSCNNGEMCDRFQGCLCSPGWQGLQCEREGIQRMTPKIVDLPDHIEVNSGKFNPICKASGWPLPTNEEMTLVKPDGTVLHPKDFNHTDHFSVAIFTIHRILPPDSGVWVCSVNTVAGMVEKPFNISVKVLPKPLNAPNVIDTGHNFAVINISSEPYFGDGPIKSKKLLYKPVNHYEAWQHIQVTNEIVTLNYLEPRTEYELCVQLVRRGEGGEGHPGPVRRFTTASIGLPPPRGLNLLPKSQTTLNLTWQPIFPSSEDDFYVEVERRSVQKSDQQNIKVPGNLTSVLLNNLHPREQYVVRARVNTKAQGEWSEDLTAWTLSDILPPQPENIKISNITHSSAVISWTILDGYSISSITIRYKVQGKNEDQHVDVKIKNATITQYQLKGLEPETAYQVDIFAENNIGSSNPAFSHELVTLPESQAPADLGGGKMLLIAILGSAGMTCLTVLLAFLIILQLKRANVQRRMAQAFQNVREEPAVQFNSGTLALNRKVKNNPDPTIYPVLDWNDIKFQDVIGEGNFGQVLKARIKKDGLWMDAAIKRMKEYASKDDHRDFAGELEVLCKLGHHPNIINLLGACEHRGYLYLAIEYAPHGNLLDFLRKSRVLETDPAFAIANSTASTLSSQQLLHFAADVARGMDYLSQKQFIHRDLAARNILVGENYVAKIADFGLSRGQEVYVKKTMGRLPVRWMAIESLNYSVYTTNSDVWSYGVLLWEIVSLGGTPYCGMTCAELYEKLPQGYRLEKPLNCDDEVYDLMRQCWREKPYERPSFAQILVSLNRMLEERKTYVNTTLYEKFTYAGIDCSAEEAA
T6 sequence (P10721 26-976 A829P): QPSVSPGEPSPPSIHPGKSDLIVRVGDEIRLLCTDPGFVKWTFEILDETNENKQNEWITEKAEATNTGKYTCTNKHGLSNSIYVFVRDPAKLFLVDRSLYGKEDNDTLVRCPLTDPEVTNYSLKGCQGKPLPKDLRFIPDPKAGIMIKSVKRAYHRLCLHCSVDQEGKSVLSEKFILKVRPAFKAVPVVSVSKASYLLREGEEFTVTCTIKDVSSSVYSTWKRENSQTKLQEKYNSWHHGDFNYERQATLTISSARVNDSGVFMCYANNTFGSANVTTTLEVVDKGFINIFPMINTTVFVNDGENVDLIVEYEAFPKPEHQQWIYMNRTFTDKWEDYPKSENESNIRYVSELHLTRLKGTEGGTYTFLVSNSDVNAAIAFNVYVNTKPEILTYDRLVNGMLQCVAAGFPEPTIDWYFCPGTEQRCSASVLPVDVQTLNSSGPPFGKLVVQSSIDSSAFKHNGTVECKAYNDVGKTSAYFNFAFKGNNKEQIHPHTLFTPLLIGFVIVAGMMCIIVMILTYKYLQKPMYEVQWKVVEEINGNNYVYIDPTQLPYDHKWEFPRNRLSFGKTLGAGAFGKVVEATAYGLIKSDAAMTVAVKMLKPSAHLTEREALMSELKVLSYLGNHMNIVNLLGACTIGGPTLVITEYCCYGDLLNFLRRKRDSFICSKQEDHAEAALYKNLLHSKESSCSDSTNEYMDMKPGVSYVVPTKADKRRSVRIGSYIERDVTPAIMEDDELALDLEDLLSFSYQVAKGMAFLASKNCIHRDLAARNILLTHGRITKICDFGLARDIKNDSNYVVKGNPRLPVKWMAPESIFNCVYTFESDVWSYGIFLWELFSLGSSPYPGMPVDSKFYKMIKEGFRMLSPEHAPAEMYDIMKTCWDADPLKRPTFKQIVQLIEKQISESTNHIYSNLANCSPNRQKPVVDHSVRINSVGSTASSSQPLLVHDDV
T35 sequence (Q9UM73 with tags, fused parts or gaps INS1151T limits assumed): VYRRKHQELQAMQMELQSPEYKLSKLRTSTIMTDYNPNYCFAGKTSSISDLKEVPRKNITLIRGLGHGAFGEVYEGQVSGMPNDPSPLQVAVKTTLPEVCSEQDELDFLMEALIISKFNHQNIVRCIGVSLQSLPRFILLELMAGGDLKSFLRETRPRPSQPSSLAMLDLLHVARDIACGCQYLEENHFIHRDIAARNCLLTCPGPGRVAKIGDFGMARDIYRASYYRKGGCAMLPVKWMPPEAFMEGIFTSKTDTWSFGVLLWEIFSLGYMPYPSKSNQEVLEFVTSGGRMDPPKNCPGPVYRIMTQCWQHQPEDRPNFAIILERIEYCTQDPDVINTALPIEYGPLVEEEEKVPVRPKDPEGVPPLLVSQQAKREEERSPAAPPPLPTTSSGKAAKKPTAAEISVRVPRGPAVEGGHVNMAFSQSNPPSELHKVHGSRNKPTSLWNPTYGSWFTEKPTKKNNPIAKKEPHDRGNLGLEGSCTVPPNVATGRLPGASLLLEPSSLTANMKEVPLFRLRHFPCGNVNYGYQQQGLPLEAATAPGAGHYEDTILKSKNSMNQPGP
T22 sequence (Q02750 whole entry S218D/S222D): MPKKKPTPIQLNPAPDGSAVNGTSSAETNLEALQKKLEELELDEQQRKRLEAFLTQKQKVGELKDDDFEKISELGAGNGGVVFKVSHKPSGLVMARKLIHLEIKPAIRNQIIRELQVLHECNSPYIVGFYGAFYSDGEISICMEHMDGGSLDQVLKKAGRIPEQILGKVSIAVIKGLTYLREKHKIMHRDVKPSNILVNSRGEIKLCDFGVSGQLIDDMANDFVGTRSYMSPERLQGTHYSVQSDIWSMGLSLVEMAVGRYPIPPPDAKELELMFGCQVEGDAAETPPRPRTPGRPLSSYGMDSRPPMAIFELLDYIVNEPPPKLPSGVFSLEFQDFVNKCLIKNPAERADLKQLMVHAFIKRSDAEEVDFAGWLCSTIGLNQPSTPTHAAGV
T20 sequence (P19525 whole entry): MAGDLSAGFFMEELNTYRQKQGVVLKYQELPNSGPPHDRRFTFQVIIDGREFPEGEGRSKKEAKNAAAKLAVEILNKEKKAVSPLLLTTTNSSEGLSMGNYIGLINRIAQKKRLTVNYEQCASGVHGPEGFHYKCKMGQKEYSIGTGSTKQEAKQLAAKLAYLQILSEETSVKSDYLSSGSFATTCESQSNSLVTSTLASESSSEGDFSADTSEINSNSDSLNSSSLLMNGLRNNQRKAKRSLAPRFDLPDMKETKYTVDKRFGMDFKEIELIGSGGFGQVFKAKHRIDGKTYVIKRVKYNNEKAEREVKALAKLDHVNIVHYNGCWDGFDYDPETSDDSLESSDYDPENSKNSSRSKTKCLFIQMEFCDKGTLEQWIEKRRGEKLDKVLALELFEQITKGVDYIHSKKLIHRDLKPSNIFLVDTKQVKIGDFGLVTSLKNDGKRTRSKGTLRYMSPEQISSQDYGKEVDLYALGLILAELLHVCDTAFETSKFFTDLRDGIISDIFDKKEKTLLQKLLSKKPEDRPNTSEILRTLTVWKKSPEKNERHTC
T30 sequence (P10721 26-976 D816H): as the sequence (P10721 26-976 A829P) above, with D791H, P804A counted along it
T2 sequence (Q8N5S9 whole entry): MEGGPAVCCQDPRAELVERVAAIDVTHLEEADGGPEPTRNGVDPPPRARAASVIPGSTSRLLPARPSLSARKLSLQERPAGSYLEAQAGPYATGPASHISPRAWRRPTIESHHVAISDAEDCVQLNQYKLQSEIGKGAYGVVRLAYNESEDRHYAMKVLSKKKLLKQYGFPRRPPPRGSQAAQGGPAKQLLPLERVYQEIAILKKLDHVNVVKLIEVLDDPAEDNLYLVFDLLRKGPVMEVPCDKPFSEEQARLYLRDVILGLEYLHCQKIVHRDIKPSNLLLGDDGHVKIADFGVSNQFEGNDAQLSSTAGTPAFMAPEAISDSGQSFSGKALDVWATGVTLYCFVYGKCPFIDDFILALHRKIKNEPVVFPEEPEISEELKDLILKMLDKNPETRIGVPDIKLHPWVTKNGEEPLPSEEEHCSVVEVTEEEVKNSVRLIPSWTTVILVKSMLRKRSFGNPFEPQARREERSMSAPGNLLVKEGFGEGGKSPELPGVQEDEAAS
T33 sequence (Q00535 whole entry): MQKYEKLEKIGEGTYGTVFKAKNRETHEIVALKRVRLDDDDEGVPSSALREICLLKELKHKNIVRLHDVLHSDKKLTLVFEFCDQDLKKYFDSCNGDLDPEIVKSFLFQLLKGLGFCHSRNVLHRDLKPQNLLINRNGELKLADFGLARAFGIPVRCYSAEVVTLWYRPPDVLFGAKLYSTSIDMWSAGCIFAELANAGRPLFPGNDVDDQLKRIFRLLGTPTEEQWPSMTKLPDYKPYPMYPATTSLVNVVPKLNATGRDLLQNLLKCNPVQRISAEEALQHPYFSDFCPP

SMILES: NS(=O)(=O)c1ccc(Nc2ncc3cc4n(c3n2)C2(CCCCC2)C(=O)NN4)cc1 [INX-315]
- inhibition at 0.1 µM (RIPK3): -9%
- inhibition at 0.1 µM (CAMKK1 (CAMKKA)): 6%
- inhibition at 0.1 µM (CDK3/cyclin E1): 88%
- inhibition at 0.1 µM (ERN2): 2%
- inhibition at 0.1 µM (ALK C1156Y): 9%
- inhibition at 0.1 µM (KIT A829P): 28%
- inhibition at 0.1 µM (CDC7/DBF4): -1%
- inhibition at 0.1 µM (KIT D816V): 34%
- inhibition at 0.1 µM (WNK2): -9%
- % Inhibition Avg (FLT3 ITD): 36%
- inhibition at 0.1 µM (AMPK (A2/B2/G2)): 11%
- inhibition at 0.1 µM (MAP3K10 (MLK2)): 8%
- inhibition at 0.1 µM (MAP3K3 (MEKK3)): 18%
- inhibition at 0.1 µM (ULK2): 3%
- inhibition at 0.1 µM (CDK2/cyclin A1): 94%
- inhibition at 0.1 µM (MAPK8 (JNK1)): 18%
- inhibition at 0.1 µM (MASTL): 0%
- inhibition at 0.1 µM (CAMKK2 (CaMKK beta)): 3%
- inhibition at 0.1 µM (DAPK2): 11%
- inhibition at 0.1 µM (STK17B (DRAK2)): 4%
- inhibition at 0.1 µM (EIF2AK2 (PKR)): -8%
- inhibition at 0.1 µM (TLK1): 0%
- inhibition at 0.1 µM [1]: 1%
- inhibition at 0.1 µM [2]: 7%
- inhibition at 0.1 µM (FGFR3 G697C): 13%
- inhibition at 0.1 µM (TTK): 49%
- inhibition at 0.1 µM (KIT T670E): 9%
- inhibition at 0.1 µM (TNIK): 12%
- inhibition at 0.1 µM (TEK (TIE2) R849W): 7%
- inhibition at 0.1 µM (AAK1): 77%
- inhibition at 0.1 µM (KIT D816H): 38%
- inhibition at 0.1 µM (CDK2/cyclin O): 98%
- inhibition at 0.1 µM (ADCK3): 49%
- inhibition at 0.1 µM (CDK5 (Inactive)): 80%
- inhibition at 0.1 µM (STK32C (YANK3)): -1%
- inhibition at 0.1 µM (ALK T1151_L1152insT): 6%
- inhibition at 0.1 µM (WNK1): 4%
